According to patent publication US12298306B2, “Marker for identifying patients with gliobastoma who respond positively to the drug regorafenib” (ISTITUTO ONCOLOGICO VENETO IOV-IRCCS, priority 2018, dated 2025):

Columns and labels:
glioblastoma = test: REGOMA randomized, controlled, phase II clinical trial, survival by pACC Ser79 marker status; format: in vivo, patients
Procedure: Once all samples of the REGOMA trial which are available for the translational study (Table 1) have been stained, the biostatistics and clinical trial team of IOV (Mr. De Salvo—doctor) performed a statistical analysis to evaluate the possible prognostic or predictive meaning of the response of pACC^Ser79.
To evaluate the prognostic role of pACC^Ser79, an analysis was carried out according to the Cox model, considering pACC^Ser79 as an independent variable and dividing the patient samples into positive and negative (as reported above), and survival, being both free from disease progression and as a whole, as a dependent variable.
To evaluate the predictive role of pACC^Ser79, the variable of the treatment received by the patient was added to the Cox model (in particular, according to a randomized assignment, the patient received Regorafenib or Lomustine) in addition to the interaction factor of received treatment*status of the marker pACC^Ser79 (positive/negative).

[1] = system: glioblastoma at diagnosis; settings: in association with standard treatment; cited from earlier work

For `CNC(=O)c1cc(Oc2ccc(NC(=O)Nc3ccc(Cl)c(C(F)(F)F)c3)c(F)c2)ccn1` [Regorafenib], the “benefit from treatment in patients with neoplastic tissue positive to pACC Ser79” value (glioblastoma; Cox model with treatment*marker interaction, comparator Lomustine) was “most benefited” and the “survival after second-line treatment in patients whose tumor samples express pACC Ser79” value (glioblastoma; pACC Ser79 positive tumor samples, second-line treatment, REGOMA) was “longer survival”.

For bevacizumab, the PFS [1] is given as “improved”, the quality of life [1] is given as “improved” and the “survival (OS)” value [1] is given as “no significant survival advantages”.
